Results from patent US6455466B1, “Compositions and methods for preventing leaf yellowing in plants” (The Regents of the University of California, priority 2000, dated 2002).

What was measured:
[1] = system: cut flowers of Alstroemeria (cv. diamond); assay: Leaf chlorophyll content / leaf yellowing of cut Alstroemeria flowers held in treatment solution; type: in vivo
Description: The model system used in the experiments was cut stems of Alstroemeria an important cut flower whose flowers normally long outlast the relatively short-lived leaves.
In a preliminary experiment with cut flowers of Alstroemeria (cv. diamond), the flowers were placed in deionized water (DI) or a solution containing 1 μM TDZ. The chlorophyll content of the leaves was measured as described by Lichenhaler, Methods in Enzymology […] (1987). […] By 20 days, there was no detectable chlorophyll in the leaves of the control flowers (see, FIG. 1).

plants = details: cited from earlier work

Question: Which “chlorophyll content of the leaves versus flowers held in deionized water” value ([1]; 1 μM TDZ solution, by 10 days) does the source give for `O=C(Nc1ccccc1)Nc1cnns1` [TDZ, 1-phenyl-3-(1,2,3-thiadiazol-5-yl)urea] here?
Answer: significantly higher than the concentration in leaves of flowers held in DI

Question: What about the “effectiveness of 24 hour pulse pre-treatment” value ([1]; 24 hour pulse pre-treatment with 10 μM TDZ compared with continuous 1 μM TDZ) of the same compound?
Answer: as effective as continuous treatment with 1 μM TDZ

Question: And the “chlorophyll content of the leaves” value ([1]; cut Alstroemeria flowers placed in solution containing 1 μM TDZ, throughout the experiment (FIG. 1))?
Answer: remained high throughout the experiment

Question: What about the “effectiveness compared with BAP or GA3” value ([1]; subsequent experiments, cut Alstroemeria flowers) of the same compound?
Answer: much more effective than BAP or GA3

Question: What about the metabolism by plants (plants) of the same compound?
Answer: plants do not metabolize it
